Reference: PMC9161374 (Science Translational Medicine, 2022)
Where “and” joins values, the source holds several entries; their conditions need not be identical. Equal entries are not always repeated.

Tests used:
[1] = system: SARS-CoV-2 (Delta, B.1.617.2); assay: microbe, parasite or virus in culture; format: cell-based; conditions: for % Inhibition: delta
[2] = system: SARS-CoV-2 (B.1) in Huh7 cells; assay: Anti-SARS-CoV-2 activity in Huh7 cells (viral yield by qRT-PCR); format: cell-based; conditions: B.1, MOI 0.05, 48 h
[3] = CCK-8 cell viability assay; format: cell-based, African green monkey; conditions: African green monkey; Vero E6 cells, 48 h, CCK8
Procedure, shortened: (§1)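 Vero E6 cells, 20,000/well, exposed to compound at 0–200 μM (0, 0.01, 0.1, 1, 5, 10, 50, 75, 100, 200 μM) for 48 h; viability read by CCK-8 and expressed as percentage versus drug concentration, mean ± SD.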

Vero E6 cells = assay: CCK-8 cell viability assay; format: cell-based, African green monkey; conditions: individual replicate values, Fig.S4
Procedure, shortened: as §1

[4] = Permeability and efflux ratio in Caco-2 cells; format: in vitro ADME; conditions: human
Description: ATV019, and ATV020 in Caco-2 cells.
Compound Caco-2 AB/BA (Papp (10-6 cm/s)) a Efflux ratio

[5] = Tissue distribution study in rats; format: in vivo, Sprague Dawley rats; conditions: rat, oral 100 mg/kg, individual animals, 100 mg/kg
Protocol: Three rats in each group were anesthetized at 1-, 4-, and 24-hours post-dosing. Blood samples were collected into the heparinized tubes which containing PhosSTOP and DTNB and centrifuged. Tissue samples, including liver, kidney, and lung were harvested after perfusion with saline and immediately homogenized for further analysis as previously described ([64]). […] For RMP and RTP determination, 50 μL of plasma or homogenate was immediately added to 150 μL of 2% formic acid and 5 μL of 10 μM ^13C,^15N-adenosine triphosphate (ATP) aqueous solution, then vortexed thoroughly and centrifuged at 4°C. Supernatant in a volume of 180 μL was mixed with an equivalent volume of water for solid-phase extraction (SPE) with a weak anion exchange plate (Waters Oasis WAX μElution plate). Finally, the eluate was gently evaporated to dryness under a gentle stream of air, and the residue was reconstituted with 100 μL H2O for analysis on a Waters Positive Pressure-96 processor.

CC(C)C(=O)OC[C@H]1O[C@@](C#N)(c2ccc3c(N)ncnn23)[C@H](O)[C@@H]1O [ATV006]
inhibition at 1 µM ([1]; Severe acute respiratory syndrome coronavirus 2, Vero C1008, delta, 1 uM, Vero E6, replicates): 94.7% | inhibition at 2 µM ([1]; Severe acute respiratory syndrome coronavirus 2, Vero C1008, delta, 2 uM, Vero E6, replicates): 96.7% | inhibition at 5 µM ([1]; Severe acute respiratory syndrome coronavirus 2, Vero C1008, delta, 5 uM, Vero E6, replicates): 95.5% | inhibition at 10 µM ([1]; Severe acute respiratory syndrome coronavirus 2, Vero C1008, delta, 10 uM, Vero E6, replicates): 99.9% | inhibition at 50 µM ([1]; Severe acute respiratory syndrome coronavirus 2, Vero C1008, delta, 50 uM, Vero E6, replicates): 99.9% | EC90 ([1]; Severe acute respiratory syndrome coronavirus 2, Vero C1008, read-out: EC90 (Confidence 95%), Vero-E6, Delta B.1.617.2): 0.506 µM | % Inhibition ([1]; 0.25 uM, Vero E6, replicates): 17.4307% | % Inhibition ([1]; 0.5 uM, Vero E6, replicates): 86.6826% | % Inhibition ([1]; 1 uM, Vero E6, replicates): 92.7523% | % Inhibition ([1]; 2 uM, Vero E6, replicates): 95.2669% | % Inhibition ([1]; 5 uM, Vero E6, replicates): 93.5585% | % Inhibition ([1]; 10 uM, Vero E6, replicates): 99.4329% | % Inhibition ([1]; 50 uM, Vero E6, replicates): 99.3835% | EC50 ([2]; Severe acute respiratory syndrome coronavirus 2, Huh-7, read-out: EC50 (Confidence 95%) in Huh7 cells): 1.63 µM | EC90 ([2]; Severe acute respiratory syndrome coronavirus 2, Huh-7, read-out: EC90 (Confidence 95%) in Huh7 cells): 1.96 µM | CC50 at 48 h [3]: 128 µM | cell viability (% of control) (Vero E6 cells; 0.01 μM compound, 0.01 µM): 93.4165 % of control and 118.52 % of control and 111.314 % of control | cell viability (% of control) (Vero E6 cells; 0.1 μM compound, 0.1 µM): 114.92 % of control and 109.106 % of control and 122.304 % of control | cell viability (% of control) (Vero E6 cells; 1 μM compound, 1 µM): 103.338 % of control and 92.7243 % of control and 89.4018 % of control | cell viability (% of control) (Vero E6 cells; 2 μM compound, 2 µM): 94.6163 % of control and 92.5859 % of control and 102 % of control | cell viability (% of control) (Vero E6 cells; 5 μM compound, 5 µM): 130.333 % of control and 131.994 % of control and 107.906 % of control | cell viability (% of control) (Vero E6 cells; 10 μM compound, 10 µM): 124.057 % of control and 118.52 % of control and 118.981 % of control | cell viability (% of control) (Vero E6 cells; 50 μM compound, 50 µM): 93.4165 % of control and 89.4165 % of control | cell viability (% of control) (Vero E6 cells; 75 μM compound, 75 µM): 60.8815 % of control and 65.7193 % of control and 58.2133 % of control | cell viability (% of control) (Vero E6 cells; 100 μM compound, 100 µM): 50.7027 % of control and 56.7073 % of control and 50.0144 % of control | cell viability (% of control) (Vero E6 cells; 200 μM compound, 200 µM): 35.664 % of control and 47.0944 % of control and 42.1024 % of control | efflux ratio [4]: 1.7 | Papp A→B ([4]; AB): 0.51 ×10⁻⁶ cm/s | Papp B→A ([4]; BA): 0.87 ×10⁻⁶ cm/s | Cmax, GS-441525 in brain ([5]; 1h): 0.717 nmol/kg and 1.164 nmol/kg and 1.176 nmol/kg | Cmax, GS-441525 in kidney ([5]; 1h): 220.56 nmol/kg and 166.84 nmol/kg and 182.64 nmol/kg | Cmax, GS-441525 in liver ([5]; 1h): 56.04 nmol/kg and 36.188 nmol/kg and 53.92 nmol/kg | Cmax, GS-441525 in lung ([5]; 1h): 49 nmol/kg and 29.492 nmol/kg and 44.72 nmol/kg | Cmax, RTP in kidney ([5]; 1h): 0.0784 nmol/kg and 0 nmol/kg and 0.0835 nmol/kg | Cmax, RTP in liver ([5]; 1h): 0.279 nmol/kg and 1.085 nmol/kg and 1.739 nmol/kg | Cmax, RTP in lung ([5]; 1h): 0.167 nmol/kg and 0.107 nmol/kg and 0.1 nmol/kg | Cmax, GS-441525 in brain ([5]; 4h): 0.208 nmol/kg and 0.227 nmol/kg and 0.506 nmol/kg | Cmax, GS-441525 in kidney ([5]; 4h): 49.24 nmol/kg and 31.336 nmol/kg and 40.16 nmol/kg | Cmax, GS-441525 in liver ([5]; 4h): 21.084 nmol/kg and 14.292 nmol/kg and 18.936 nmol/kg | Cmax, GS-441525 in lung ([5]; 4h): 10.048 nmol/kg and 8.088 nmol/kg and 8.604 nmol/kg | Cmax, RTP in kidney ([5]; 4h): 0.354 nmol/kg and 0.345 nmol/kg and 0.186 nmol/kg | Cmax, RTP in liver ([5]; 4h): 1.765 nmol/kg and 0.82 nmol/kg and 0.878 nmol/kg | Cmax, RTP in lung ([5]; 4h): 0.328 nmol/kg and 0.343 nmol/kg and 0.26 nmol/kg | Cmax, GS-441525 in brain ([5]; 24h): 0 nmol/kg (2×) and 0.0506 nmol/kg | Cmax, GS-441525 in kidney ([5]; 24h): 0.54 nmol/kg and 7 nmol/kg and 0.459 nmol/kg | Cmax, GS-441525 in liver ([5]; 24h): 0.243 nmol/kg and 2.843 nmol/kg and 0.303 nmol/kg | Cmax, GS-441525 in lung ([5]; 24h): 0.136 nmol/kg and 1.289 nmol/kg and 0.0964 nmol/kg | Cmax, RTP in kidney ([5]; 24h): 0.0664 nmol/kg and 0.068 nmol/kg and 0 nmol/kg | Cmax, RTP in liver ([5]; 24h): 0.325 nmol/kg and 0.223 nmol/kg and 0.759 nmol/kg | Cmax, RTP in lung ([5]; 24h): 0.191 nmol/kg and 0.249 nmol/kg and 0 nmol/kg
